What was measured:
[1] = test system: Phospho-ERK1/2 in DLD1 cells; assay: Phospho-ERK1/2 expression inhibition in DLD1 cells; type: cell-based; conditions: Homo sapiens, DLD-1, 4 hours, read-out: DLD1 pERK IC50
Protocol: Example 23: Phospho-ERK1/2 Expression Inhibition in DLD1 Cells
DLD1 cells were obtained from American Type Culture Collection (ATCC). DLD1 cells were plated in 96-well plates (VWR #10062-900, or Corning #3904) in 90 uL culture medium at a density of 15,000 cells/well in the RPM11640 growth medium containing 10% FBS and 1% Penicillin Streptomycin, and then incubated at 37° C. overnight. The following day, the test compound was administered to the cells by using 1000×x compound stock solution prepared in DMSO at various concentrations. 1000× compound stock solution was first diluted in culturing medium to 10×, then 10 uL compound medium was added to each well in the cell plates. After administration of the compound, the cells were then incubated at 37° C. for 4 hours. Upon completion, the cells were washed with PBS briefly. 150 uL/well of 4% formaldehyde was added and the plates were incubated at room temperature for 20 mins. The cells were washed with PBS briefly, and permeabilized with 150 uL/well of ice cold 100% methanol for 10 mins. The cells were washed with PBS briefly and blocked with 100 uL/well LI-COR blocking buffer for 1 hr at room temperature with gentle shaking. The cells were incubated overnight at 4° C. with 50 uL primary antibody rabbit anti-Phospho-ERK1/2 (1: 500, Cell Signaling, #4370) diluted in Intercept Blocking Buffer (LI-COR, #927-60001) containing 0.1% Tween 20. The next day, the cells were washed with 200 uL PBS containing 0.1% Tween 20, 5×5 mins at room temperature with gentle shaking, and incubated with 50 uL secondary antibody, IRDye® 800CW Goat anti-Rabbit IgG (LI-COR, #926-32211), 1:1000, in LI-COR blocking buffer with 0.2% Tween 20 for 1 hr at room temperature with gentle shaking. The cells were washed with 200 uL PBS containing 0.1% Tween 20, 5×5 mins at room temperature with gentle shaking. The cells were washed with PBS for 5 mins. 100 uL fresh PBS was added to each well and the plates were imaged on a LI-COR Odyssey CLX plate reader.

K562 cells = assay: Cell growth inhibition of K562 cells (CellTiter-Glo); type: cell-based; conditions: Homo sapiens, 120 h, 5 days
Protocol: Example 24: Cell Growth Inhibition of K562 Cells
K562 cells were obtained from American Type Culture Collection (ATCC). For cell growth assay, K562 cells were seeded in 96-well plates at 1000 cells/well in 90 μl of RPM11640 growth medium containing 10% FBS and 1% Penicillin Streptomycin, and then incubated at 37° C. for 1 hour. The test compound was administered to the cells by using 1000× compound stock solution prepared in DMSO at various concentrations. 1000× compound stock solution was first diluted in culturing medium to 10×, then 10 uL compound medium was added to each well in the cell plates. After administration of the compound, the cells were then incubated at 37° C. for 5 days. Upon completion, the plates were equilibrated at room temperature for approximately 10 minutes. 100 ul of CellTiter-Glo® Reagent (Promega) was added to each well. The plates were then incubated at room temperature for 10 minutes and luminescence was recorded by EnSpire plate reader (PerkinElmer).

SOS1/KRAS-G12D = SOS1/KRAS-G12D (Homo sapiens (Human), UniProt Q07889); assay: SOS1/KRAS-G12D binding inhibition assay (AlphaScreen); conditions: GST-SOS1 and 6*His KRAS-G12D, read-out: KrasG12D/SOS1 binding IC50
Protocol: Example 22: SOS1/KRAS-G12D Binding Inhibition Assay
SOS1 binding affinity of candidate compounds was measured by monitoring the interaction of SOS1 with KRAS-G12D in the presence of the test compound. Briefly, 5 nM GST tagged SOS1 proteins (final concentration) were pre-incubated with 50 nM 6*His tagged KRAS-G12D proteins (final concentration) in an assay buffer containing 10 mM HEPES, pH 7.4, 150 mM NaCl, 1 mM DTT, 5 mM MgCl2, 0.1% Tween-20, and 0.05% BSA for 30 minutes. The test compounds in 2% DMSO (final concentration) at various concentrations were then added to the reaction mixture and incubated for another 30 minutes at 4° C. 5 ug/ml GSH AlphaScreen donor beads (PerkinElmer, 6765300) and 5 ug/ml nickel chelate (Ni-NTA) AlphaScreen acceptor beads (PerkinElmer, 6760619C) (final concentrations) were then added to the mixture. After an incubation of 2 hours at 4° C., the fluorescent signals were obtained on the EnVision® 2105 Multilabel Plate Reader (PerkinElmer).
Raw AlphaScreen data were converted to a percentage of inhibition (relative to DMSO) using the following equations: • a) For a given test compound concentration X:
Signal (X)=Signal (SOS1 & KRAS-G12D & compound)-Signal (buffer & KRAS-G12D & compound)
Percentage of inhibition at concentration X=[1−Signal (X)/Signal (DMSO)]*100% b)
The IC50 values were determined by nonlinear regression of plots of [inhibitor] vs. percentage of inhibition with variable slope, analyzed using GraphPad Prism 9.

Chain of SOS1/KRAS-G12D (Q07889 564-1049 limits assumed): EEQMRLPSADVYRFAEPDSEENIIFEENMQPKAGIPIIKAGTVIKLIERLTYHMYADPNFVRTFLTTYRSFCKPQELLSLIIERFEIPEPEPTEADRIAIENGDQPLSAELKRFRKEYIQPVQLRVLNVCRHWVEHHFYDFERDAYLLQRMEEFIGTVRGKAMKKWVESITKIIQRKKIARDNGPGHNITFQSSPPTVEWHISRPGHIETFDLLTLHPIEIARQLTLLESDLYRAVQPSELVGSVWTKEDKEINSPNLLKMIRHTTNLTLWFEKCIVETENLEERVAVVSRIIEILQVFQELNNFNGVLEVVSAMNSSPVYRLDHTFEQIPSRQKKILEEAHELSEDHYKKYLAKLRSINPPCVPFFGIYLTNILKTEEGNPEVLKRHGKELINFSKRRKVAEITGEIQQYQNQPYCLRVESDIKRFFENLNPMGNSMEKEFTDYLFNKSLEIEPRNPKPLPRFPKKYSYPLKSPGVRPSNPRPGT

| SMILES | IC50 [1] | GI50 (K562 cells) | IC50 (SOS1/KRAS-G12D) |
| --- | --- | --- | --- |
| CC(=O)N1CCN(c2ccc3nccc(N[C@H](C)c4cccc(C(F)(F)F)c4C)c3c2)CC12CC2 [Compound 70, (R)-1-(7-(4-((1-(2-methyl-3-(trifluoromethyl)phenyl)ethyl)amino)quinolin-6-yl)-4,7-diazaspiro[2.5]octan-4-yl)ethan-1-one] | > 0.5 µM | 0.1 to 0.5 µM | 0.01 to 0.1 µM |
| Cc1c([C@@H](C)Nc2ccnc3ccc(N4C[C@@H](C)NC[C@@H]4C)cc23)cccc1C(F)(F)F [Compound 56, 6-((2S,5R)-2,5-dimethylpiperazin-1-yl)-N-((R)-1-(2-methyl-3-(trifluoromethyl)phenyl)ethyl)quinolin-4-amine] | > 0.5 µM | 0.1 to 0.5 µM | 0.01 to 0.1 µM |
| COC(=O)N1CC[C@@](OC)(c2ccc3nccc(N[C@H](C)c4cccc(C(F)F)c4F)c3c2)C1 [Compound 90, methyl (R)-3-(4-(((R)-1-(3-(difluoromethyl)-2-fluorophenyl)ethyl)amino)quinolin-6-yl)-3-methoxypyrrolidine-1-carboxylate] | > 0.5 µM | 0.1 to 0.5 µM | 0.01 to 0.1 µM |
| Cc1c([C@@H](C)Nc2ccnc3ccc(N4CC5CC(C4)N5)cc23)cccc1C(F)(F)F [Compound 58, 6-(3,6-diazabicyclo[3.1.1]heptan-3-yl)-N-((R)-1-(2-methyl-3-(trifluoromethyl)phenyl)ethyl)quinolin-4-amine] | > 0.5 µM | 0.1 to 0.5 µM | 0.01 to 0.1 µM |
| CC(=O)N1C[C@@H](C)N(c2ccc3nccc(N[C@H](C)c4cccc(C(F)(F)F)c4C)c3c2)C[C@@H]1C [Compound 57, 1-((2S,5R)-2,5-dimethyl-4-(4-(((R)-1-(2-methyl-3-(trifluoromethyl)phenyl)ethyl)amino)quinolin-6-yl)piperazin-1-yl)ethan-1-one] | > 0.5 µM | 0.1 to 0.5 µM | > 0.1 µM |
| C[C@@H](Nc1ccnc2ccc(N3CCC(N)CC3)cc12)c1cccc(C(F)F)c1F [Compound 49, (R)-6-(4-aminopiperidin-1-yl)-N-(1-(3-(difluoromethyl)-2-fluorophenyl)ethyl)quinolin-4-amine] | > 0.5 µM | 0.1 to 0.5 µM | ≤ 0.01 µM |
| COC(=O)N1CCC(F)(c2cc3c(N[C@H](C)c4cccc(C(F)(F)F)c4C)ccnc3cc2OC)CC1 [Compound 74, Methyl (R)-4-fluoro-4-(7-methoxy-4-((1-(2-methyl-3-(trifluoromethyl)phenyl)ethyl)amino)quinolin-6-yl)piperidine-1-carboxylate] | 0.15 to 0.5 µM | 0.1 to 0.5 µM | 0.01 to 0.1 µM |
| Cc1c([C@@H](C)Nc2ccnc3ccc(N4CCNC(C)(C)C4)cc23)cccc1C(F)(F)F [Compound 35] | > 0.5 µM | 0.1 to 0.5 µM | 0.01 to 0.1 µM |
| CC(=O)N1C[C@H](C)N(c2ccc3nccc(N[C@H](C)c4cccc(C(F)(F)F)c4C)c3c2)C[C@H]1C [Compound 66, 1-((2R,5S)-2,5-dimethyl-4-(4-(((R)-1-(2-methyl-3-(trifluoromethyl)phenyl)ethyl)amino)quinolin-6-yl)piperazin-1-yl)ethan-1-one] | > 0.5 µM | > 0.5 µM | > 0.1 µM |
| CC(=O)N1CCC(F)(c2ccc3nccc(N[C@H](C)c4cccc(C(F)F)c4F)c3c2)CC1 [Compound 41, (R)-1-(4-(4-((1-(3-(difluoromethyl)-2-fluorophenyl)ethyl)amino)quinolin-6-yl)-4-fluoropiperidin-1-yl)ethan-1-one] | 0.15 to 0.5 µM | ≤ 0.1 µM | ≤ 0.01 µM |
| [2H]C([2H])([2H])O[C@@]1(c2ccc3nccc(N[C@H](C)c4cccc(C(F)F)c4F)c3c2)CCN(C(C)=O)C1 [Compound 94, 1-((R)-3-(4-(((R)-1-(3-(difluoromethyl)-2-fluorophenyl)ethyl)amino)quinolin-6-yl)-3-(methoxy-d3)pyrrolidin-1-yl)ethan-1-one] | ≤ 0.15 µM | ≤ 0.1 µM | – |
| CO[C@@]1(c2ccc3nccc(N[C@H](C)c4cccc(C(F)F)c4F)c3c2)CCN(C(C)=O)C1 [Compound 75, 1-((R)-3-(4-(((R)-1-(3-(difluoromethyl)-2-fluorophenyl)ethyl)amino)quinolin-6-yl)-3-methoxypyrrolidin-1-yl)ethan-1-one] | > 0.5 µM | 0.1 to 0.5 µM | ≤ 0.01 µM |
| Cc1c([C@@H](C)Nc2ccnc3ccc(N4CCNCC4)cc23)cccc1C(F)(F)F [Compound 5, (R)-N-(1-(2-methyl-3-(trifluoromethyl)phenyl)ethyl)-6-(piperazin-1-yl)quinolin-4-amine] | – | > 0.5 µM | 0.01 to 0.1 µM |
| CC(=O)N1CC[C@@](F)(c2ccc3nccc(N[C@H](C)c4cccc(C(F)F)c4F)c3c2)C1 [Compound 86, 1-((R)-3-(4-(((R)-1-(3-(difluoromethyl)-2-fluorophenyl)ethyl)amino)quinolin-6-yl)-3-fluoropyrrolidin-1-yl)ethan-1-one] | – | > 0.5 µM | > 0.1 µM |
| Cc1c([C@@H](C)Nc2ccnc3ccc(N4CCOCC4)cc23)cccc1C(F)(F)F [Compound 37, (R)-N-(1-(2-methyl-3-(trifluoromethyl)phenyl)ethyl)-6-morpholinoquinolin-4-amine] | 0.15 to 0.5 µM | 0.1 to 0.5 µM | – |
| Cc1c([C@@H](C)Nc2ccnc3ccc(N4CCNC[C@H]4C)cc23)cccc1C(F)(F)F [Compound 68, N-((R)-1-(2-methyl-3-(trifluoromethyl)phenyl)ethyl)-6-((R)-2-methylpiperazin-1-yl)quinolin-4-amine] | > 0.5 µM | > 0.5 µM | – |
| CC(=O)N1CCN(c2ccc3nccc(N[C@H](C)c4cccc(C(F)(F)F)c4C)c3c2)[C@H](C)C1 [Compound 67, 1-((R)-3-methyl-4-(4-(((R)-1-(2-methyl-3-(trifluoromethyl)phenyl)ethyl)amino)quinolin-6-yl)piperazin-1-yl)ethan-1-one] | > 0.5 µM | > 0.5 µM | – |
| CC(=O)N[C@@H]1CCN(c2ccc3ncc(C#N)c(N[C@H](C)c4cccc(C(F)F)c4F)c3c2)C1 [Compound 7, N-((R)-1-(3-cyano-4-(((R)-1-(3-(difluoromethyl)-2-fluorophenyl)ethyl)amino)quinolin-6-yl)pyrrolidin-3-yl)acetamide] | – | > 0.5 µM | > 0.1 µM |
| [2H]C([2H])([2H])O[C@]1(c2ccc3nccc(N[C@H](C)c4cccc(C(F)F)c4F)c3c2)CCN(C(C)=O)C1 [Compound 93, 1-((S)-3-(4-(((R)-1-(3-(difluoromethyl)-2-fluorophenyl)ethyl)amino)quinolin-6-yl)-3-(methoxy-d3)pyrrolidin-1-yl)ethan-1-one] | ≤ 0.15 µM | ≤ 0.1 µM | – |
| Cc1c([C@@H](C)Nc2c(C#N)cnc3ccc(N4CCNCC4)cc23)cccc1C(F)(F)F [Compound 2, (R)-4-((1-(2-methyl-3-(trifluoromethyl)phenyl)ethyl)amino)-6-(piperazin-1-yl)quinoline-3-carbonitrile] | – | > 0.5 µM | > 0.1 µM |

From patent US20240208909A1, “SUBSTITUTED QUINOLINE DERIVATIVES HAVING SOS1 INHIBITION ACTIVITIES AND USES THEREOF” (Accutar Biotechnology Inc., priority 2022, published 2024)
